From article PMC8281026, “Peptide Based Inhibitors of Protein Binding to the Mitogen-Activated Protein Kinase Docking Groove” (Frontiers in Molecular Biosciences, 2021)
One block for each compound: values may come before it. *1 amine or outer side, *2 acyl side, *3 side chain or, on linkers, in order; H or OH if unused. Where a SMILES comes first, the peptide text is derived from it. Bridges are numbered along the chain shown (N, C = ends). The star is where a group is joined. Dabcyl = CN(C)c1ccc(N=Nc2ccc(C(=O)*)cc2)cc1; TBMB = c1c(C[*:1])cc(C[*:3])cc1C[*:2]; X1 = O=C(C[*:2])[*:1]

How the values were obtained:
p38α = biological target: T1, p38α (Homo sapiens, UniProt Q16539); test: Fluorescence polarization competitive binding assay, p38; conditions: competitive FP titration against 50 nM Cf-RHDF (gives Ki, used as proxy of Kd); 20 mM Tris pH 8.0, 100 mM NaCl, 0.05% Brij35, 2 mM TCEP; at least 3 independent measurements; read-out: Kd (µM) ± sd, p38
T1 construct: made in house; host or cells: Escherichia coli
Method: (§1) ERK2 and p38 proteins used for fluorescence polarization (FP) measurements were recombinantly expressed in Escherichia coli and purified according to Garai et al. The purified and concentrated proteins were subjected to fluorescence polarization based binding measurements ([Garai et al., 2012]) using 50 nM Cf-labeled Cf-RHDF (Cf-SLQRKKPPWLKLDIPSC) and the data was analyzed using OriginPro. For direct measurements the concentration of ERK2 and p38 protein was increased, and for competitive measurements the protein-labeled peptide complex at 60–80% complex formation was titrated with increasing concentration of unlabeled peptide and the amount of the protein-labeled peptide complex (fraction bound) was determined using Cytation 3 (BioTek Instruments) plate reader in 384-well black plates. The direct measurement gives the Kd between the labeled peptide and the MAPK, while the competitive titration experiment with the unlabeled peptide gives the Ki for the unlabeled peptide competing off the labeled peptide, which is a good proxy for the binding affinity of the unlabeled peptide to the protein. All of the FP measurements were performed in assay buffer: 20 mM Tris (pH 8.0), 100 mM NaCl, 0.05% Brij35, and 2 mM TCEP. Fraction bound of the labeled ligand was calculated based on direct binding and competitive binding equations described in ([Roehrl et al., 2004]; [Simon et al., 2020]). The Kd and Ki values were obtained by fitting the FP data, measured in triplicates, to a direct binding equation or to a competitive binding equation using the OriginPro software.

active ERK2 (pp-ERK2) = active ERK2 (pp-ERK2) (Homo sapiens, UniProt P28482); test: In vitro MAPK activity assay (Nanobit luciferase protein fragment complementation), ERK2; type: biochemical; conditions: for EC50: 1 nM pp-ERK2, 2 mM ATP, 50 mM HEPES pH 7.5, initial rates, luminescence, at least 3 independent measurements; for EC50 increase relative to peptide 8: ratio of EC50 values, compared with peptide 8
Method: (§2) In order to determine the inhibitory effect of RHDF-peptides, we used a protein fragment complementation based assay. […] Upon MAPK activity, these two proteins bind and form the active luciferase enzyme oxidizing its substrate (coelenterazine) and ultimately giving some luminescent signal. The initial rates of the reactions were calculated and were compared for the applied inhibitor’s concentration, and then EC50 values were determined using dose response fitting (OriginPro) (see in Supplementary Figure S26). Reactions were carried out in a buffer of 50 mM HEPES, pH 7.5, 100 mM NaCl, 5 mM MgCl2, 0.05% IGEPAL, 50 μM Coelenterazine h, 5% glycerol, 2 mM DTT, 1mM TCEP, 0.5 mg/ml BSA containing 1 nM active ERK2 (pp-ERK2) or p38 (pp-p38α) and were started by the addition of 2 mM ATP. Luminescence was measured using a luminescence plate reader (Cytation 3, BioTek) in white 96-well plates.

p38 (pp-p38α) = p38 (pp-p38α) (Homo sapiens, UniProt Q16539); test: In vitro MAPK activity assay (Nanobit luciferase protein fragment complementation), p38; type: biochemical; conditions: 1 nM pp-p38α, 2 mM ATP, 50 mM HEPES pH 7.5; initial rates, luminescence; at least 3 independent measurements
Method: as §2

HEK-293T cells [1] = test: Cellular uptake by fluorescence microscopy; type: cell-based; conditions: for cellular uptake: data is not shown; for internalization into HEK-293T cells: fluorescence microscopy, serum-free medium, 37 °C, up to 3 h, Figure 1
Method: (§3) The cellular uptake of the fluorescent labeled peptide into HEK-293T cells were analyzed by fluorescence microscopy (Cytation 3, BioTek Instruments) and two peptides were further examined by confocal laser scanning microscopy (Zeiss LSM-710 system). Cells were incubated with peptides in serum-free medium (DMEM) for 3 h at 37 °C and then washed twice with 200 μl of serum-free medium before analyzing.

ERK2 = biological target: T2, ERK2 (Homo sapiens, UniProt P28482); test: Fluorescence polarization competitive binding assay, ERK2; conditions: for Kd: competitive FP titration against 50 nM Cf-RHDF (gives Ki, used as proxy of Kd), 20 mM Tris pH 8.0, 100 mM NaCl, 0.05% Brij35, 2 mM TCEP, at least 3 independent measurements, read-out: Kd (µM) ± sd, ERK2
T2 construct: made in house; host or cells: Escherichia coli
Method: as §1

HEK-293T cells [2] = test: Intracellular distribution by confocal laser scanning microscopy; type: cell-based; conditions: 10 and 20 µM, 3 h
Method: as §3

T2 sequence (P28482 whole entry, species assumed): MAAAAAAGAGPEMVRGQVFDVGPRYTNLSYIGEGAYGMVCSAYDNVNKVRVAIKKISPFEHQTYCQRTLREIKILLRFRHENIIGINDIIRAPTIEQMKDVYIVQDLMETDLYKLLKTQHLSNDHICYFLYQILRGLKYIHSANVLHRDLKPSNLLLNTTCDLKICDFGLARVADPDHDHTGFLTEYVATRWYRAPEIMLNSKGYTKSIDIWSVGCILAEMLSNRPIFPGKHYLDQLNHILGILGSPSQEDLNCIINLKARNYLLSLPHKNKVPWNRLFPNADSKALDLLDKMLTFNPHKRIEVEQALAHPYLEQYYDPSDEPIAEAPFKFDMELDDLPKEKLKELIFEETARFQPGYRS
Chain of active ERK2 (pp-ERK2) (P28482 whole entry, the tested form may be a part): as the sequence (P28482 whole entry, species assumed) above
T1 sequence (Q16539 whole entry): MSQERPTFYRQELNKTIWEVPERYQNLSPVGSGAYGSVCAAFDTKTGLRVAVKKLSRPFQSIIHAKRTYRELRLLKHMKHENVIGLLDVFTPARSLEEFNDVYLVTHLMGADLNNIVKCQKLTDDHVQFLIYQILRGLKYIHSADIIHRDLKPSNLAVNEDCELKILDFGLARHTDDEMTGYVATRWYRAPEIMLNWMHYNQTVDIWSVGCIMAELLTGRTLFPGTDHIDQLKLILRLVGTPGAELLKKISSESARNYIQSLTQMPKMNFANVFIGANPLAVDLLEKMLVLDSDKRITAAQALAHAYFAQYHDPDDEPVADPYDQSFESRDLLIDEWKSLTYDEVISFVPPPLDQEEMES
Chain of p38 (pp-p38α) (Q16539 whole entry, the tested form may be a part): as the sequence (Q16539 whole entry) above

Compound: H-KKPPWLKLDI-NH2 [compound 4, H-KKPPWLKLDI-NH 2]
cellular uptake (HEK-293T cells [1]): poor
binding decrease relative to the original peptide (ERK2; ERK2 Kd, compared with original peptide 1): 8.3 times

Compound: H-RRPPWLRLDI-NH2 [compound 5, H-RRPPWLRLDI-NH 2]
cellular uptake (HEK-293T cells [1]): poor

Compound: Cf-RRPPWLRLDIRR-NH 2 [compound 7]
internalization into HEK-293T cells (HEK-293T cells [1]): time and concentration dependent internalization

Compound: Cf- RRRPPWLRLDIRR-NH 2 [compound 9]
intracellular distribution (HEK-293T cells [2]): punctuated
internalization into HEK-293T cells (HEK-293T cells [1]): time and concentration dependent internalization

Compound: CC[C@H](C)[C@@H]1NC(=O)[C@H](CC(=O)O)NC(=O)[C@H](CC(C)C)NC(=O)[C@H](CCCNC(=N)N)NC(=O)[C@H](CC(C)C)NC(=O)[C@H](Cc2c[nH]c3ccccc23)NC(=O)[C@@H]2CCCN2C(=O)[C@@H]2CCCN2C(=O)[C@@H](NC(=O)[C@H](CCCNC(=N)N)NC(=O)[C@H](CCCNC(=N)N)NC(=O)[C@H](CCCNC(=N)N)NC(=O)c2ccc(N=Nc3ccc(N(C)C)cc3)cc2)CCCCNC(=O)CSC[C@@H](C(N)=O)NC(=O)[C@H](CCCNC(=N)N)NC(=O)[C@H](CCCNC(=N)N)NC1=O [compound 15] (Dabcyl-RRRKPPWLRLDIRRC-NH2; linker 4-15 via X1)
Kd (p38α): 1.2 ± 0.6 µM
Kd (ERK2): 1.5 ± 0.3 µM

Compound: CC[C@H](C)[C@H](NC(=O)[C@H](CC(=O)O)NC(=O)[C@H](CC(C)C)NC(=O)[C@H](CCCCN)NC(=O)[C@H](CC(C)C)NC(=O)[C@H](Cc1c[nH]c2ccccc12)NC(=O)[C@@H]1CCCN1C(=O)[C@@H]1CCCN1C(=O)[C@H](CCCCN)NC(=O)[C@H](CCCCN)NC(=O)[C@H](CCCNC(=N)N)NC(=O)[C@H](CCC(N)=O)NC(=O)[C@H](CC(C)C)NC(=O)[C@@H](N)CO)C(=O)N1CCC[C@H]1C(=O)N[C@@H](CO)C(=O)N[C@@H](CS)C(N)=O [compound 1, H-SLQRKKPPWLKLDIPSC-NH 2]
cellular uptake (HEK-293T cells [1]): poor

Compound: CC(C)C[C@@H]1NC(=O)[C@H](CCCNC(=N)N)NC(=O)[C@H](CC(C)C)NC(=O)[C@@H]2CSCc3cc(cc(c3)CSC[C@H](NC(=O)[C@H](CCCNC(=N)N)NC(=O)[C@H](CCCNC(=N)N)NC(=O)[C@H](CCCNC(=N)N)NC(=O)c3ccc(N=Nc4ccc(N(C)C)cc4)cc3)C(=O)N3CCC[C@H]3C(=O)N3CCC[C@H]3C(=O)N[C@@H](Cc3c[nH]c4ccccc34)C(=O)N2)CSC[C@@H](C(N)=O)NC(=O)[C@H](CCCNC(=N)N)NC(=O)[C@H](CCCNC(=N)N)NC(=O)[C@H](CC(=O)O)NC1=O [compound 17] (Dabcyl-RRRCPPWCLRLDRRC-NH2; linker 4-8-15 via TBMB)
Kd (p38α): 3.2 ± 0.7 µM
Kd (ERK2): 4.5 ± 0.6 µM

Compound: H-RRPPWLRLDIRR-NH2 [compound 6, H-RRPPWLRLDIRR-NH 2]
EC50 (active ERK2 (pp-ERK2)): 12.9 µM
EC50 increase relative to peptide 8 (active ERK2 (pp-ERK2)): 3.7 times
EC50 (p38 (pp-p38α)): 3.7 µM
binding enhancement by extension of the C-terminus by two Arg (ERK2; ERK2 Kd, compared with peptide 5): 3.5 times

Continued, values first:

Kd (p38α): 1.4 ± 0.3 µM
EC50 (active ERK2 (pp-ERK2)): 3.5 µM
EC50 (p38 (pp-p38α)): 1.3 µM
Compound: H-RRRPPWLRLDIRR-NH2 [compound 8, H-RRRPPWLRLDIRR-NH 2]

EC50 increase relative to peptide 8 (active ERK2 (pp-ERK2)): 2.4 times
Compound: CC[C@H](C)[C@H](NC(=O)[C@H](CC(=O)O)NC(=O)[C@H](CC(C)C)NC(=O)[C@H](CCCNC(=N)N)NC(=O)[C@H](CC(C)C)NC(=O)[C@H](Cc1c[nH]c2ccccc12)NC(=O)[C@@H]1CCCN1C(=O)[C@@H]1CCCN1C(=O)[C@H](CCCNC(=N)N)NC(=O)[C@H](CCCNC(=N)N)NC(=O)[C@H](CCCNC(=N)N)NC(=O)c1ccc(/N=N/c2ccc(N(C)C)cc2)cc1)C(=O)N[C@@H](CCCNC(=N)N)C(=O)N[C@@H](CCCNC(=N)N)C(=O)N[C@@H](CCCCN)C(N)=O [compound 10, Dabcyl-RRRPPWLRLDIRRK-NH 2]

Kd (p38α): 1.4 ± 0.4 µM
Kd (ERK2): 0.9 ± 0.2 µM
Compound: CC[C@H](C)[C@@H]1NC(=O)[C@H](CC(=O)O)NC(=O)[C@H](CC(C)C)NC(=O)[C@H](CCCNC(=N)N)NC(=O)[C@H](CC(C)C)NC(=O)[C@@H]2CSCc3cc(cc(c3)CSC[C@H](NC(=O)[C@H](CCCNC(=N)N)NC(=O)[C@H](CCCNC(=N)N)NC(=O)[C@H](CCCNC(=N)N)NC(=O)c3ccc(N=Nc4ccc(N(C)C)cc4)cc3)C(=O)N3CCC[C@H]3C(=O)N3CCC[C@H]3C(=O)N[C@@H](Cc3c[nH]c4ccccc34)C(=O)N2)CSC[C@@H](C(N)=O)NC(=O)[C@H](CCCNC(=N)N)NC(=O)[C@H](CCCNC(=N)N)NC1=O [compound 16] (Dabcyl-RRRCPPWCLRLDIRRC-NH2; linker 4-8-16 via TBMB)

Kd (p38α): 1.7 ± 0.4 µM
Kd (ERK2): 4.1 ± 0.3 µM
Compound: CC(C)C[C@@H]1NC(=O)[C@H](CCCNC(=N)N)NC(=O)[C@H](CC(C)C)NC(=O)[C@@H](NC(=O)[C@H](Cc2c[nH]c3ccccc23)NC(=O)[C@@H]2CCCN2C(=O)[C@@H]2CCCN2C(=O)[C@H](CCCNC(=N)N)NC(=O)[C@H](CCCNC(=N)N)NC(=O)[C@H](CCCNC(=N)N)NC(=O)c2ccc(N=Nc3ccc(N(C)C)cc3)cc2)CCCCNC(=O)CSC[C@@H](C(N)=O)NC(=O)[C@H](CCCNC(=N)N)NC(=O)[C@H](CCCNC(=N)N)NC(=O)[C@H](CC(=O)O)NC1=O [compound 12] (Dabcyl-RRRPPWKLRLDRRC-NH2; linker 7-14 via X1)

Kd (p38α): 1 ± 0.7 µM
Kd (ERK2): 1 ± 0.2 µM
Compound: CC(C)C[C@@H]1NC(=O)[C@H](CCCNC(=N)N)NC(=O)[C@H](CC(C)C)NC(=O)[C@H](Cc2c[nH]c3ccccc23)NC(=O)[C@@H]2CCCN2C(=O)[C@@H]2CCCN2C(=O)[C@@H](NC(=O)[C@H](CCCNC(=N)N)NC(=O)[C@H](CCCNC(=N)N)NC(=O)[C@H](CCCNC(=N)N)NC(=O)c2ccc(N=Nc3ccc(N(C)C)cc3)cc2)CCCCNC(=O)CSC[C@@H](C(N)=O)NC(=O)[C@H](CCCNC(=N)N)NC(=O)[C@H](CCCNC(=N)N)NC(=O)[C@H](CC(=O)O)NC1=O [compound 13] (Dabcyl-RRRKPPWLRLDRRC-NH2; linker 4-14 via X1)

Kd (p38α): 2.1 ± 0.6 µM
Kd (ERK2): 5.1 ± 0.4 µM
Compound: CC(C)C[C@@H]1NC(=O)[C@H](CCCNC(=N)N)NC(=O)[C@H](CC(C)C)NC(=O)[C@H](Cc2c[nH]c3ccccc23)NC(=O)[C@@H]2CCCN2C(=O)[C@@H]2CCCN2C(=O)[C@H](CCCNC(=N)N)NC(=O)[C@H](CCCNC(=N)N)NC(=O)[C@H](CCCNC(=N)N)NC(=O)[C@@H](NC(=O)c2ccc(N=Nc3ccc(N(C)C)cc3)cc2)CCCCNC(=O)CSC[C@@H](C(N)=O)NC(=O)[C@H](CCCNC(=N)N)NC(=O)[C@H](CCCNC(=N)N)NC(=O)[C@H](CC(=O)O)NC1=O [compound 14] (Dabcyl-KRRRPPWLRLDRRC-NH2; linker 1-14 via X1)
